Assay results published in the supplement of paper PMC4862054.
Values joined by “and” are separate entries in the source; they are usually repeats but may differ in a detail not shown here. Equal entries are not always repeated.

How the values were obtained:
Assay in all cases: normalised viability (% of control), CellTiter-Blue; higher = more viable cells (about 100 = DMSO control)
Conditions in all cases: incubation time: 72 h
[1] = system: CAL-51
Experimental: (§1)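 DSRT, CellTiter-Blue viability, 72 h incubation. Signal is normalised to DMSO and benzethonium chloride controls. Value is the normalised response at dose 7.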

[2] = system: HDQ-P1
Experimental: as §1

[3] = system: CAL-148
Experimental: as §1

[4] = system: DU-4475
Experimental: as §1

[5] = system: MDA-MB-453
Experimental: as §1

[6] = system: CAL-85-1
Experimental: as §1

[7] = system: CAL-51; remark: listed apart in the source
Experimental: (§2)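 DSRT, CellTiter-Blue viability, 72 h incubation. Signal is normalised to DMSO and benzethonium chloride controls. Value is the normalised response at dose 6.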

[8] = system: HDQ-P1; remark: listed apart in the source
Experimental: as §2

[9] = system: CAL-148; remark: listed apart in the source
Experimental: as §2

[10] = system: DU-4475; remark: listed apart in the source
Experimental: as §2

[11] = system: MDA-MB-453; remark: listed apart in the source
Experimental: as §2

[12] = system: CAL-85-1; remark: listed apart in the source
Experimental: as §2

CC(=O)c1c(C)c2cnc(Nc3ccc(N4CCNCC4)cn3)nc2n(C2CCCC2)c1=O (1000 nM)
normalised viability [1]: 72.8%
normalised viability [2]: 99.5%
normalised viability [3]: 107%
normalised viability [4]: 94.6%
normalised viability [5]: 66.2%
normalised viability [6]: 98.9%

O=NN(CCCl)C(=O)NCCCl [Carmustine] (300 nM)
normalised viability [7]: 108%
normalised viability [8]: 79.4%
normalised viability [9]: 101%
normalised viability [10]: 77.4%
normalised viability [11]: 110%
normalised viability [12]: 94.2%

CC1=C2C[C@H]3[C@@H](CC=C4C[C@@H](O)CC[C@@]43C)[C@@H]2CC[C@]12O[C@@H]1C[C@H](C)CN[C@H]1[C@H]2C [Cyclopamine] (300 nM)
normalised viability [7]: 115%
normalised viability [8]: 79.2%
normalised viability [9]: 115%
normalised viability [10]: 105%
normalised viability [11]: 113%
normalised viability [12]: 106%

CC(=O)O[C@@]12CO[C@@H]1C[C@H](O)[C@@]1(C)C(=O)[C@H](O)C3=C(C)[C@@H](OC(=O)[C@H](O)[C@@H](NC(=O)OC(C)(C)C)c4ccccc4)C[C@@](O)([C@@H](OC(=O)c4ccccc4)[C@H]21)C3(C)C [Docetaxel] (30 nM)
normalised viability [7]: 25.8% and 20.6%
normalised viability [8]: 23.5% and 31.8%
normalised viability [9]: 18.9% and 14.9%
normalised viability [10]: 19.6% and 16.1%
normalised viability [11]: 27.2% and 26.1%
normalised viability [12]: 30.6% and 27.1%

C[C@]12CC[C@@H]3c4ccc(OC(=O)N(CCCl)CCCl)cc4CC[C@H]3[C@@H]1CC[C@@H]2O [Estramustine] (29.7 nM)
normalised viability [7]: 79.1%
normalised viability [8]: 95.3%
normalised viability [9]: 116%
normalised viability [10]: 71.4%
normalised viability [11]: 97.2%
normalised viability [12]: 97.2%

C[C@]12CC[C@@H]3c4ccc(OC(=O)N(CCCl)CCCl)cc4CC[C@H]3[C@@H]1CC[C@@H]2O [Estramustine] (99 nM)
normalised viability [1]: 85.8%
normalised viability [2]: 97.1%
normalised viability [3]: 119%
normalised viability [4]: 106%
normalised viability [5]: 99.7%
normalised viability [6]: 102%

CC1(C)CNc2cc(NC(=O)c3cccnc3NCc3ccncc3)ccc21 [Motesanib] (300 nM)
normalised viability [7]: 103%
normalised viability [8]: 62.8%
normalised viability [9]: 98.8%
normalised viability [10]: 95.9%
normalised viability [11]: 86.5%
normalised viability [12]: 78.1%

C[C@]1(O)C[C@@H](c2nc(-c3ccc4ccc(-c5ccccc5)nc4c3)c3c(N)nccn32)C1 [OSI-906] (300 nM)
normalised viability [7]: 91.5%
normalised viability [8]: 49.8%
normalised viability [9]: 89.2%
normalised viability [10]: 91.5%
normalised viability [11]: 87%
normalised viability [12]: 87.2%

C[C@]1(O)C[C@@H](c2nc(-c3ccc4ccc(-c5ccccc5)nc4c3)c3c(N)nccn32)C1 [OSI-906] (1000 nM)
normalised viability [1]: 86.9%
normalised viability [2]: 55.5%
normalised viability [3]: 95%
normalised viability [4]: 77.3%
normalised viability [5]: 93.7%
normalised viability [6]: 91.9%

CC[C@@H]1C(=O)OC[C@@H]1Cc1cncn1C [Pilocarpine] (1200 nM)
normalised viability [7]: 97.6%
normalised viability [8]: 113%
normalised viability [9]: 101%
normalised viability [10]: 88.2%
normalised viability [11]: 105%
normalised viability [12]: 100%

COc1cc(F)c(F)c(Nc2ccc(I)cc2F)c1NS(=O)(=O)C1(C[C@H](O)CO)CC1 [RDEA119] (300 nM)
normalised viability [7]: 74.9%
normalised viability [8]: 58.7%
normalised viability [9]: 82.6%
normalised viability [10]: 1.76%
normalised viability [11]: 80.8%
normalised viability [12]: 72.8%

COc1cc(F)c(F)c(Nc2ccc(I)cc2F)c1NS(=O)(=O)C1(C[C@H](O)CO)CC1 [RDEA119] (1000 nM)
normalised viability [1]: 79.3%
normalised viability [2]: 40.8%
normalised viability [3]: 87.7%
normalised viability [4]: 0.64%
normalised viability [5]: 67%
normalised viability [6]: 54.1%

CC(C)(C)c1cnc(CSc2cnc(NC(=O)C3CCNCC3)s2)o1 [SNS-032] (300 nM)
normalised viability [7]: 74%
normalised viability [8]: 10.2%
normalised viability [9]: 7.44%
normalised viability [10]: 27.9%
normalised viability [11]: 18.9%
normalised viability [12]: 9.41%

Cn1cnc2c(F)c(Nc3ccc(Br)cc3Cl)c(C(=O)NOCCO)cc21 [Selumetinib] (300 nM)
normalised viability [7]: 95.1%
normalised viability [8]: 41.9%
normalised viability [9]: 89.6%
normalised viability [10]: 7.86%
normalised viability [11]: 121%
normalised viability [12]: 83.4%

Nc1nc2[nH]cnc2c(=S)[nH]1 [Thioguanine] (300 nM)
normalised viability [7]: 102%
normalised viability [8]: 75.6%
normalised viability [9]: 99%
normalised viability [10]: 100%
normalised viability [11]: 107%
normalised viability [12]: 93.3%

O=P(O)(O)C(O)(Cn1ccnc1)P(=O)(O)O [Zoledronic acid] (300 nM)
normalised viability [7]: 104%
normalised viability [8]: 68.9%
normalised viability [9]: 93.6%
normalised viability [10]: 115%
normalised viability [11]: 93.7%
normalised viability [12]: 98.4%

O=P(O)(O)C(O)(Cn1ccnc1)P(=O)(O)O [Zoledronic acid] (1000 nM)
normalised viability [1]: 101%
normalised viability [2]: 95.7%
normalised viability [3]: 92.5%
normalised viability [4]: 120%
normalised viability [5]: 86.8%
normalised viability [6]: 88.4%
